US6368852B1, “Peptide capable of inducing immune response to human gastric cancer and agent for preventing or treating human gastric cancer, containing the peptide” (Ajinomoto Co., Inc., priority 1995, dated 2002)
Where no end group is shown, it is not given here.

Key:
[1] = tested on: Tc-HST-2 cells with HST-2 cells expressing HLA-A31 antigen as target cells; assay: CTL assay using a TNF-releasing method (Wehi164/MTT); assay type: cell-based, human; conditions: peptide final concentration 10 μM, 1 μM or 0.1 μM; HST-2 target cells; target cells to CTL 1:100; 12 hours
Procedure: That is, in the TNF-releasing method, the HLA-A31-positive HST-2 or KG-1 cell is mixed with the peptide of the present invention, and the mixture is incubated at 37° C. for 3 hours. Then, Tc-HST-2 cells are added thereto, and the resulting mixture is further incubated for 12 hours. The activity of any TNF released in the supernatant is measured to detect the CTL inducibility.
The TNF activity can be measured by the method described in Immunogenetics, vol. 35, p. 145 (1992).
That is, TNF-sensitive Wehi164 cells are mixed with a test sample, and the mixture is incubated for 24 hours. Then, an MTT [3-(4,5-dimethylthiazol-2-yl)-2,5-diphenyl tetrazolium bromide] solution is added to the culture, and the resulting mixture is further incubated for 3 hours. After any formazan converted within mitochondria is dissolved in acid propanol, the amount thereof is measured in terms of an absorbance at OD570 to detect the TNF activity.
That is, 1×10^4 HST-2 cells expressing HLA-A31 antigen were suspended as target cells in 100 μl of the solution, and 5 μl of each of the above-mentioned four synthetic peptides were added thereto such that the final concentration reached 10 μM, 1 μM or 0.1 μM. The mixture was further incubated under the same conditions for 3 hours to bind the HLA-bound peptide to the HLA molecule. Subsequently, Tc-HST-2 cells (1×10^6 cells/ml) were added thereto in an amount of 100 μl, and the resulting mixture was further incubated for 12 hours under the same conditions.
After 12 hours of incubation, 30 μl of the supernatant formed was collected, and the TNF activity released in the supernatant was measured to detect the CTL inducibility. The TNF activity was measured by the following method.
That is, 7×10^4 Wehi164 cells which are TNF-sensitive cells were suspended in 120 μl of the solution, and 30 μl of the above-obtained supernatant were added thereto. The mixture was incubated for 24 hours. […] Then, the absorbance was measured at a wavelength of 570 nm to measure the TNF activity.

[2] = tested on: Tc-HST-2 cells with HST-2 or KG-1 cells expressing HLA-A31 antigen as target cells; assay: CTL inducibility by the 51Cr-releasing method (specific cytotoxicity of Tc-HST-2); assay type: cell-based, human; conditions: HLA-bound peptide from HST-2 separated by reversed-phase HPLC; target cells to CTL 1:100; 12 hours incubation
Procedure: That is, HLA-A31-positive HST-2 or KG-1 cells are radio-labeled with sodium chromate containing ^51Cr, and are then mixed with the HLA-bound peptide separated through reversed phase chromatography. The mixture is incubated at 37° C. for 3 hours, and Tc-HST-2 is then added thereto. The resulting mixture is further incubated for 12 hours. The CTL inducibility can be detected by measuring the radio-activity of ^51Cr released in the supernatant.
The CTL inducibility of the HPLC elution fractions against Tc-HST-2 cells was measured as follows. […]
Subsequently, Tc-HST-2 cells (2.5×10^5 cells/ml) were added thereto in an amount of 100 μl, and the mixture was incubated under the same conditions for 12 hours. After 12 hours of incubation, 100 μl of the supernatant formed were collected, and the radioactivity of ^51Cr released in this supernatant was measured using a γ-counter to measure the CTL activity.
The specific cytotoxicity was calculated using the following formula. […]
wherein the minimum release value indicates a measured value of a well filled with target cells alone and a value of ^51Cr naturally released from target cells, and the maximum release value indicates a release value when the cells are destroyed by adding a surfactant, 1% Triton x-100, to target cells.

Substance: YSWMDISCW [Peptide 1-9]
- CTL inducibility of Tc-HST-2 (TNF activity released in the supernatant) [1]: CTL inducibility of TC-HST-2 was identified

Substance: Peptide 1-7: peptide containing 7 amino acids starting from the N-terminus of Synthetic Peptide 1 (SEQ ID NO: 4) (YSWMDIS)
- CTL inducibility of Tc-HST-2 (TNF activity released in the supernatant) [1]: no CTL inducibility

Substance: YSWMDISC [Peptide 1-8]
- CTL inducibility of Tc-HST-2 (TNF activity released in the supernatant) [1]: no CTL inducibility

Substance: YSWMDISCWI [Peptide 1, Tyr Ser Trp Met Asp Ile Ser cys Trp Ile]
- CTL inducibility of Tc-HST-2 (specific cytotoxicity, 51Cr release) [2]: exhibiting the CTL inducibility
